pIC50: −log10 of the molar value.
Experiments:
human topoisomerase II = molecular target: T1, human topoisomerase II (Homo sapiens, UniProt P11388); test: Decatenation assay (catenated to decatenated KDNA); type: biochemical; conditions: drug concentration that inhibits 50% of conversion of catenated to decatenated KDNA; read-out: topoisomerase II inhibition IC50
T1 construct: purchased TopoGEN, Inc
Protocol: Kinetoplast DNA (KDNA), human topoisomerase II (170 KDa form), and DNA Unwinding Kit including supercoiled pHOT1 DNA, relaxed DNA marker, buffers, and human topoisomerase I were purchased from TopoGEN, Inc. Agarose was purchased from Fisher. Quinobenzoxazine A-62176 (S-enantiomer) was provided by Abbott Laboratories or prepared by published procedure (Chu and Maleczka, Jr., 1987).
0.25 μg of KDNA was incubated with various concentrations of the quinobenzoxazines in a 20-μl reaction mixture containing 50 mM Tris-HCl (pH 8), 120 mM KCl, 10 mM MgCl2, and 0.5 mM each of ATP, dithiothreitol, and […] BSA for 10 min. Two units of human topoisomerase II (170 KDa form) were added to the mixture, which was then incubated at 37° C. for 30 min. The reaction was terminated with 0.1 volume of stop buffer (5% sarkosyl, 0.025% bromophenol blue, and 50% glycerol). The decatenation products were analyzed on 1% agarose gels run with 0.5 μg/ml ethidium bromide. The gels were scanned by FluoroImager and analyzed by ImageQuaNT software (Molecular Dynamics).

supercoiled pHOT1 DNA = test: DNA unwinding assay; type: biochemical; conditions: concentration shifting topoisomers to the middle position between relaxed and supercoiled bands
Protocol: A 22 μl mixture of 0.25 μg of supercoiled pHOT1 DNA, 5 units of topoisomerase I in topoisomerase I buffer (provided with the kit) was incubated at 37° C. for 30 min. Two μl of various concentrations of drug was added, and the incubation was continued for another 30 min. The reactions were terminated by addition of SDS to 1%. Proteinase K was added to the reaction mixtures to ca. 50 μg/ml, and the reaction mixtures were incubated for 15-20 min at 56° C. After adding 0.1 volume of 10×gel loading buffer, the reaction mixtures were extracted with an equal volume of CIA (Chloroform:isoamyl Alcohol; 24:1). The samples were loaded on an 1% agarous gel that was cast in TPE buffer (36 mM Tris-HCl, pH 7.8, 1 mM EDTA, 30 mM NaH2PO4) and 0.2 μg/ml Chloroquine. The gel was run in TPE buffer at room temperature at 10 volts for 20 h, destained in water for 15 min, stained in 0.05 μg/ml ethidium bromide for 15 min, and destained again in water for 15 min. The gel was then photographed, scanned by FluoroImager, and analyzed by ImageQuaNT software (Molecular Dynamics).

T1 sequence (P11388 whole entry): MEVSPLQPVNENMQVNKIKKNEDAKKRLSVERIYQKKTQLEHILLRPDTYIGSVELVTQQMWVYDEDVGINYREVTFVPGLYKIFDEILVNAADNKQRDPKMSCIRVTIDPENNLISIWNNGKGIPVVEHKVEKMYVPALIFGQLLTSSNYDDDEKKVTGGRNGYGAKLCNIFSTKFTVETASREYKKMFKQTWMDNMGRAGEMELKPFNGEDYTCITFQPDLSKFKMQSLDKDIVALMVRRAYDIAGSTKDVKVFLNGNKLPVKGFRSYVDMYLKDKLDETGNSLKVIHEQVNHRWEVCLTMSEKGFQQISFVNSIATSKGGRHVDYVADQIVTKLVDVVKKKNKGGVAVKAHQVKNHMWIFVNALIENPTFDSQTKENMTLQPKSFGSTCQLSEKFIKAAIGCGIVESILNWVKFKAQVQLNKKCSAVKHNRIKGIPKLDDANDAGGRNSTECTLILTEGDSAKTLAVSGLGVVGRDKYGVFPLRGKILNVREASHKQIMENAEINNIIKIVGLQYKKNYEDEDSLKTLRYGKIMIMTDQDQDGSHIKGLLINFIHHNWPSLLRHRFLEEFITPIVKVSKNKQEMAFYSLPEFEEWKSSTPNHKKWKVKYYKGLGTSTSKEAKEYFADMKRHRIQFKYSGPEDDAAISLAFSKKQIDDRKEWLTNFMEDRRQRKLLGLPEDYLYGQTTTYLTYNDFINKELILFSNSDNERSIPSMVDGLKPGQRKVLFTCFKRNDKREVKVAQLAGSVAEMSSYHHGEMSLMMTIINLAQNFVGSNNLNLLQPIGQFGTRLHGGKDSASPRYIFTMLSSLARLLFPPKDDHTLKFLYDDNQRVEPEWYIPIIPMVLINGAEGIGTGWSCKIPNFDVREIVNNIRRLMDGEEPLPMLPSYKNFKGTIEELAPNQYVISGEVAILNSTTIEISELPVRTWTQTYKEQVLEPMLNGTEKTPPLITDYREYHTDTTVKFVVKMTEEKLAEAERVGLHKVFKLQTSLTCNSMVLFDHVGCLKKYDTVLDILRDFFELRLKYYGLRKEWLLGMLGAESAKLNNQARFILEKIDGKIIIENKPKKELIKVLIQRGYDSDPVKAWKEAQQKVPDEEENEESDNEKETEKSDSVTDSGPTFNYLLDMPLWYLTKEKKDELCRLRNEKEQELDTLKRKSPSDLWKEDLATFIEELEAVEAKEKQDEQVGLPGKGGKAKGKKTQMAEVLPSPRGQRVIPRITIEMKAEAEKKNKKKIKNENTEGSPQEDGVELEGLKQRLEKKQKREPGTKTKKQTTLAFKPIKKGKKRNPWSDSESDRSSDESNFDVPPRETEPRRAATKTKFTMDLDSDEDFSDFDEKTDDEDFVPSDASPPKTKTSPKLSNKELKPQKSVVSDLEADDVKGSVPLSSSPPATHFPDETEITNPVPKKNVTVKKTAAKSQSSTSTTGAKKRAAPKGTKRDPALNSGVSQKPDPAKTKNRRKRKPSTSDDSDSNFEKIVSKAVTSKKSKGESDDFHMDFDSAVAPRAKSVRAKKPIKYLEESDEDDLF

pIC50 (human topoisomerase II): 6.29
Compound: N[C@H]1CCN(c2c(F)cc3c(=O)c(C(=O)O)cn4c3c2Oc2ccccc2-4)C1 [Compound A-62176, 1-(3-aminopyrrolidin-1-yl)-2-fluoro-4-oxo-4H-quino[2,3,4-i,j][1,4]benzoxazine-5-carboxylic acid, reference compound]
DNA unwinding concn (supercoiled pHOT1 DNA): 50 µM
